Values of other authors as cited in patent US20190210972A1, “METHODS OF RESOLVING RACEMIC MIXTURE TO OBTAIN (-)-HUPERZINE A” (AMPHASTAR NANJING PHARMACEUTICALS INC., priority 2014, published 2019).

Test system: patients with Alzheimer's disease
Settings: double-blind, placebo-controlled

## C/C=C1\C2C=C(C)C[C@]1(N)c1ccc(=O)[nH]c1C2 (single isomer, unassigned; (-)) [(−)-Huperzine A]
  cognitive function and quality of life of trial participants: Significant improvements
